pIC50: −log10 of the molar value. Where two headings read alike, the source gives them in different places.
What was measured:
Assay type in all cases: cell-based
[1] = system: BNIP and Ndrg-1 expression; experiment: Gene expression analysis of drug treated tumor cell cultures; conditions: HIF1 alfa dependent genes
Protocol: Mechanism of action. Mechanistic exploration was performed using gene expression analysis of drug treated tumor cell cultures to generate a drug specific signature. The breast cancer cell line MCF-7 was treated with VLX50 or vehicle (DMSO) and analyzed for gene expression using the Affymetrix U1300plus chip. […] This query signature was subsequently submitted to the GSEA and the Connectivity map databases and strong connections to hypoxia inducible factor (HIF1 alfa) and iron chelators were retrieved. […] The mechanism was confirmed by direct measurements of drug induced decrease in intracellular iron concentration (FIG. 6b).

[2] = system: Lung cancer patient tumor cells; experiment: FMCA, patient tumor samples, lung cancer; conditions: Homo sapiens
Source text: (§1) Cell culture. Patient tumor samples (98) and preparations (4) of normal peripheral blood mononuclear cells (PBMC), detailed in Table 1, were used to determine the activity of VLX50 and, for comparison, six other cytotoxic drugs chosen to represent different mechanistic classes.
(§2) The tumor samples were obtained by bone marrow/peripheral blood sampling, routine surgery or diagnostic biopsy. Leukemic cells and PBMCs were isolated by 1.077 g ml-1 Ficoll-Paque centrifugation (Larsson et al., 1992). Tumor tissue from solid tumor samples was minced into small pieces and tumor cells were isolated by collagenase dispersion followed by Percoll density gradient centrifugation (Csoka et al., 1994). […] Cell viability was determined by trypan blue exclusion test and the proportion of tumor cells in the preparation was judged by inspection of May-Grunvald-Giemsa stained cytospin slides (FIG. 1a). […]
(§3) Fluorometric Microculture Cytotoxicity Assay. The Fluorometric Microculture Cytotoxicity Assay, FMCA, described in detail previously (Lindhagen et al., 2008), is based on measurement of fluorescence generated from hydrolysis of fluorescein diacetate (FDA) to fluorescein by cells with intact plasma membranes. […] Quality criteria for a successful assay included a mean coefficient of variation of less than 30% in the control and a fluorescence signal in control wells of more than 5 times the blank. […]

[3] = system: normal peripheral blood mononuclear cells (PBMC); experiment: FMCA, normal peripheral blood mononuclear cells; conditions: Homo sapiens
Source text: as §1, §2, §3

pIC50 ([2]; n=6, 72 h FMCA, read-out: Median IC50): 4.87 | pIC50 ([2]; range over n=6 samples, read-out: IC50 Range): 4.40 to 6.29
Structure (SMILES): COCCCNC(=S)N/N=C\c1ccccn1 [VLX50, N1-(3-methoxypropyl)-2-(pyridylmethylidene)-hydrazine-1-carbothioamide]
Expression of BNIP and Ndrg-1 [1]: significantly increasing | pIC50 ([3]; n=4, 72 h FMCA, read-out: Median IC50): 5.05 | pIC50 ([3]; range over n=4 samples, read-out: IC50 Range): 4.88 to 5.54

From US20120309798A1, “Tumour Treatment Agents and Method” (Vivolux AB, priority 2009, published 2012)
